We go through 4 compounds from US20230117831A1, “MULTI-FUNCTIONAL CHIMERIC MOLECULES” (THE BROAD INSTITUTE, INC., priority 2020, published 2023).

Each structure is given as a SMILES string. “Also recorded” adds a separate entry of the source.

A word on the Kd: it is the constant that tells how readily two partners part at equilibrium.

The target in one assay is T1, BRD4 (PKC) (Homo sapiens, UniProt O60885+P17252).
T1 construct: BRD4-GST (BD1 and BD2 (49-460))(31044); GST; purchased BPS Bioscience (BRD4); SignalChem (PKCα) 31044; P61-18G
Nature of the assay: ADP-Glo turnover assay, PKC + BRD4-GST. The assay is classed as biochemical. As to conditions: limiting PKC 50 nM; iPHICS2 as negative control. On the procedure: The same protocol was followed for PHICS2.3 as well. Initially, 1 μM of PHICS2.3 and (R)-PHICS2.3 were prepared in a 96 well plate (white, flat bottom) using kinase assay buffer and incubated with 50 nM PKC and 700 nM BRD4-GST (BD1 and BD2) for 1 hr at room temperature in the presence of 50 μM ATP before adding ADP-Glo reagents.

The target of another assay is T2, BRD4 (PKCα) (Homo sapiens, UniProt O60885+P17252).
T2 construct: BRD4-GST (BD1 and BD2 (49-460))(31044); GST; purchased BPS Bioscience (BRD4); SignalChem (PKCα) 31044; P61-18G
In words: BRD4 phosphorylation by PKC, western blot. The assay is classed as biochemical. On the procedure: Kinase reaction was performed using 1 μM PHICS (2.1, 2.2, 2.3, 2.4, 2.5 and (R)-2.3), 50 nM PKC, 700 nM BRD4-GST and 50 μM ATP for 1 hr at room temperature before quenching with SDS loading buffer. Proteins were resolved in NuPAGE 4-12% Bis-Tris protein gels and transferred to a PVDF membrane. After incubation of the membrane with the blocking buffer, phospho-PKC substrate motif [(R/K)XpSX(R/K)] (Cell Signaling, Cat #6967) (1:1000) primary antibody was added to the membrane and further incubated at 4° C. for overnight. HRP-conjugated secondary antibodies or IRDye 800CW/IRDye 680RD secondary antibodies were used to visualize the protein bands.
(§1) Similar approaches were followed to determine the phosphorylation of BRD4 with different AMPK and PKC isoforms as well as phosphorylation of different BRD proteins.
On the technique in general: A western blot detects proteins with antibodies after separation by electrophoresis.

Another assay has as its target T3, BRD4 and PKC (α-isoform) (Homo sapiens, UniProt O60885+P17252).
T3 construct: BRD4-His tag (BD1 and BD2 (49-460))(31045); purchased BPS Bioscience (BRD4); SignalChem (PKCα) 31045; P61-18G
In words: AlphaScreen ternary complex formation. The assay is classed as binding. On the procedure:
A similar approach was followed to determine the PHICS2 induced ternary complex formation between PKC: PHICS2: BRD4-GST (BD1 and BD2). Initially, concentration series of PHICS (2.1, 2.2, 2.3, 2.4 and 2.5) with different linkers and (R)-PHICS2.3 with DMSO control were prepared in a white opaque 384-well microplate using a dilution assay buffer with 1% DMSO in the final mixture. Then 10 nM PKC-GST and 100 nM BRD4 (6×His tag) were added to the mixture and incubated at room temperature. Following 1 hr incubation, acceptor beads and donor beads were added to the system.

The target in a further assay is T4, BRD4 (PKCβII) (Homo sapiens, UniProt O60885+P05771).
T4 construct: BRD4-GST (BD1 and BD2 (49-460))(31044); purchased SignalChem (PKC); BPS Bioscience (BRD4) P63-18G; 31044
Nature of the assay: BRD4 phosphorylation by PKC isoform, western blot. The assay is classed as biochemical.
Source text: as §1

A further assay addresses T5, BRD4 (PKCγ) (Homo sapiens, UniProt O60885+P05129).
T5 construct: BRD4-GST (BD1 and BD2 (49-460))(31044); purchased SignalChem (PKC); BPS Bioscience (BRD4) P66-18G; 31044
In words: BRD4 phosphorylation by PKC isoform, western blot. The assay is classed as biochemical.
Source text: as §1

The target in the next assay is T6, BRD4 (PKCβI) (Homo sapiens, UniProt O60885+P05771).
T6 construct: BRD4-GST (BD1 and BD2 (49-460))(31044); purchased SignalChem (PKC); BPS Bioscience (BRD4) P62-18G; 31044
Nature of the assay: BRD4 phosphorylation by PKC isoform, western blot. The assay is classed as biochemical.
Source text: as §1

For another assay, the target named is T7, BRD4 (PKCδ) (Homo sapiens, UniProt O60885+Q05655).
T7 construct: BRD4-GST (BD1 and BD2 (49-460))(31044); purchased SignalChem (PKC); BPS Bioscience (BRD4) P64-18G; 31044
Nature of the assay: BRD4 phosphorylation by PKC isoform, western blot. The assay is classed as biochemical.
Source text: as §1

The target of the next assay is PKCalpha (Homo sapiens, UniProt P17252). Conditions: cited from earlier work.
The next assay addresses PKC beta (Homo sapiens, UniProt P05771). As to conditions: cited from earlier work.
Another assay concerns the target PKC delta (Homo sapiens, UniProt Q05655). As to conditions: cited from earlier work.
Assay [1] deals with lung cancer and HeLa cervical adenocarcinoma cells. Conditions: formation of membrane ruffles; cited from earlier work.
The next assay deals with PKCδ (Homo sapiens, UniProt Q05655). As to conditions: cited from earlier work.
In a further assay the target is T8, PKC epsilon (Homo sapiens, UniProt Q02156).
T8 sequence (Q02156 1-737): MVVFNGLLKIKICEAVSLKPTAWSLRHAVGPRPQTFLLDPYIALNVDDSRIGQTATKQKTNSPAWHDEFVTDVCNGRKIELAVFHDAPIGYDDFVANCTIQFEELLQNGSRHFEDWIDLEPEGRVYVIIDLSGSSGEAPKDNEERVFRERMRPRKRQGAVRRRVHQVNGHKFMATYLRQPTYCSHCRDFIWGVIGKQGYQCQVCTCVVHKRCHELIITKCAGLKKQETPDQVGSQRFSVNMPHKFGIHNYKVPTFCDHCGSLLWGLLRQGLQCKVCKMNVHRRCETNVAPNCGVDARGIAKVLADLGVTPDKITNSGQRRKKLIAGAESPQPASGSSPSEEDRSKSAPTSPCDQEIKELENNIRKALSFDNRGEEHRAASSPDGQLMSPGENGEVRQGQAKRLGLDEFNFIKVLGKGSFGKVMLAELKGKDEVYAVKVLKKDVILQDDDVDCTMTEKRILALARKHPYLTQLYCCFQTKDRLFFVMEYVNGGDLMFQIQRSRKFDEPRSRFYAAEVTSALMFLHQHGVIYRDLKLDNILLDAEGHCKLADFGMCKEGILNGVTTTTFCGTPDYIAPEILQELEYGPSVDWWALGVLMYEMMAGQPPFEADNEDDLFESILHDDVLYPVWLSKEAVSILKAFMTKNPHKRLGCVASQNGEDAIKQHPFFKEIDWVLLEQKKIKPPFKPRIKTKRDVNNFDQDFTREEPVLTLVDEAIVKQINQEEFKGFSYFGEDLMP
As to conditions: cited from earlier work.

Assay [2] deals with T9, ABL (Homo sapiens, UniProt P00519). As to conditions: cited from earlier work.
The target in assay [3] is T9, ABL. Nature of the assay: ADP-Glo ABL activation. The assay is classed as biochemical. From the text:
To expand the scope of PHICS beyond the Ser/Thr kinases (AMPK or PKC), Applicants will develop PHICS using the Abelson (ABL) family that are nonreceptor tyrosine kinases with SH3-SH2-TK ([…]) domains (42, 43). An autoinhibitory mechanism involving intramolecular interactions stabilizes this kinase in a “locked” conformation, inhibiting kinase activity unless the SH3 domain interactions are disrupted by binding of an activator. The SH2 domain of ABL is responsible for substrate specificity: if the SH2 domain is exchanged for another protein's SH2 domain, then substrate specificity is altered (43). […] Both DPH and DPH with linker (FIG. 83B) activated ABL in […] (FIG. 83C).
For orientation: In ADP-Glo the light output rises with the ADP produced.

Assay [4] addresses BTK (Ser180) (Homo sapiens, UniProt Q06187+Q13131+Q9Y478). Nature of the assay: in vitro BTK phosphorylation by AMPK, western blot. The assay is classed as biochemical. As to conditions: phospho BTK (Ser180) antibody. On the procedure:
FIG. 69—In-vitro biochemical validation of BTK phosphorylation by AMPK in the presence of PHICS. Western blot analysis for BTK phosphorylation using 10 μM BTK targeting AMPK-PHICS with different linkers for identification of the optimal molecule for further studies.

For assay [5], the target named is T10, BTK (Ser180) (Homo sapiens, UniProt Q06187, K430R).
T10 construct: expressed in transfected cells; host or cells: HEK293T
Nature of the assay: BTK Ser180 phosphorylation in HEK293T cells, western blot. The assay is classed as cell-based. Conditions: BTK K430R mutant.

Assay [6] addresses T11, BTK (Ser180) (Homo sapiens, UniProt Q06187, D539N).
T11 construct: expressed in transfected cells; host or cells: HEK293T
The assay is described as above. The assay is classed as cell-based. Conditions: BTK D539N mutant.

For assay [7], the target named is T12, BTK (Ser180) (Homo sapiens, UniProt Q06187, T474A).
T12 construct: expressed in transfected cells; host or cells: HEK293T
The description is as above. As to conditions: BTK T474A mutant. The assay is classed as cell-based.

The target of assay [8] is T13, BTK (Ser180) (Homo sapiens, UniProt Q06187, S180A).
T13 construct: expressed in transfected cells; host or cells: HEK293T
The description is as above. The assay is classed as cell-based. Conditions: BTK-Flag S180A mutant.

Assay [9] deals with BTK (Ser180) (Homo sapiens, UniProt Q06187). The assay is described as above. The assay is classed as cell-based.
Assay [10] has as its system AMPK:PHICS3:BTK ternary complex. Nature of the assay: co-immunoprecipitation of AMPK with BTK-Flag in HEK293T cells. The assay is classed as cell-based. Conditions: HEK293T transfected with BTK-Flag. The procedure:
Co-immunoprecipitation was performed to evaluate the ternary complex (AMPK: PHICS3: BTK) formation in HEK293T cells after overexpressing the BTK, which is otherwise absent in these cells. HEK293T cells were cultured in DMEM supplemented with 10% FBS, penicillin (100 units/mL) and streptomycin (100 μg/mL). Cells were maintained at 37° C. in 5% CO2 humidified atmosphere.
After 36 hrs transfection of pcDNA3.1(+) BTK-Flag plasmid using TransIT®-293 Transfection Reagent, HEK 293T cells were maintained in a serum-free media overnight before incubation with compounds. After that, cells were treated with 5 μM concentration of AMPK activator or BTK binder or PHICS3 or DMSO control for 4 hrs in a fresh serum-free media before cells were lysed on ice in a lysis buffer (M-PER™ Mammalian Protein Extraction Reagent, Halt™ Protease and Phosphatase Inhibitor Cocktail (2×) and 50 mM NaF). Next, the protein concentrations of cell lysates were measured using Pierce™ BCA Protein Assay Kit. Equal amounts of cell lysates were incubated with Anti-FLAG® M2 Magnetic Beads overnight at 4° C. […] Eluted proteins were analyzed by western blotting using AMPK-α rabbit antibody (Cell Signaling, Cat #5832) or Flag mouse antibody (Cell Signaling, Cat #8146) (1:2000) or Beta-actin mouse antibody (Cell Signaling, Cat #3700) (1:2000).

Chain of BTK (Ser180) (Homo sapiens, UniProt Q06187) (Q06187 2-659): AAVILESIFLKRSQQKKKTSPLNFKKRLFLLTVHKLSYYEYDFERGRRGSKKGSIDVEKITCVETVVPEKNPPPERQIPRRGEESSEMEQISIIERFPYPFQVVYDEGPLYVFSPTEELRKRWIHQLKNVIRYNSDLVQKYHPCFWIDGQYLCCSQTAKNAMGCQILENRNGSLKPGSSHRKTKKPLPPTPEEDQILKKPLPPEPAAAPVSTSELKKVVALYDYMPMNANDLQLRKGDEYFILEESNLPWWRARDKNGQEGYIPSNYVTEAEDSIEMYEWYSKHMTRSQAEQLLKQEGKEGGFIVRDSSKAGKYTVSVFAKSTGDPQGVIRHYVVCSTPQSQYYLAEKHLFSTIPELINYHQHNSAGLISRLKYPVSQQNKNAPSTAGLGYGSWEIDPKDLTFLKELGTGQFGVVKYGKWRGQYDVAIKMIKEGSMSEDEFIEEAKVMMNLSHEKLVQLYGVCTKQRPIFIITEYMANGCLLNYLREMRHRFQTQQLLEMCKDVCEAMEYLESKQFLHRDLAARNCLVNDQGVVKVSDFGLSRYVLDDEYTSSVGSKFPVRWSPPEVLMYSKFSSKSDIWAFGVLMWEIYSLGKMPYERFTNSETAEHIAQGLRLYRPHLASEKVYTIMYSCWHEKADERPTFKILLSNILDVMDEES
T9 sequence (P00519 whole entry, species assumed): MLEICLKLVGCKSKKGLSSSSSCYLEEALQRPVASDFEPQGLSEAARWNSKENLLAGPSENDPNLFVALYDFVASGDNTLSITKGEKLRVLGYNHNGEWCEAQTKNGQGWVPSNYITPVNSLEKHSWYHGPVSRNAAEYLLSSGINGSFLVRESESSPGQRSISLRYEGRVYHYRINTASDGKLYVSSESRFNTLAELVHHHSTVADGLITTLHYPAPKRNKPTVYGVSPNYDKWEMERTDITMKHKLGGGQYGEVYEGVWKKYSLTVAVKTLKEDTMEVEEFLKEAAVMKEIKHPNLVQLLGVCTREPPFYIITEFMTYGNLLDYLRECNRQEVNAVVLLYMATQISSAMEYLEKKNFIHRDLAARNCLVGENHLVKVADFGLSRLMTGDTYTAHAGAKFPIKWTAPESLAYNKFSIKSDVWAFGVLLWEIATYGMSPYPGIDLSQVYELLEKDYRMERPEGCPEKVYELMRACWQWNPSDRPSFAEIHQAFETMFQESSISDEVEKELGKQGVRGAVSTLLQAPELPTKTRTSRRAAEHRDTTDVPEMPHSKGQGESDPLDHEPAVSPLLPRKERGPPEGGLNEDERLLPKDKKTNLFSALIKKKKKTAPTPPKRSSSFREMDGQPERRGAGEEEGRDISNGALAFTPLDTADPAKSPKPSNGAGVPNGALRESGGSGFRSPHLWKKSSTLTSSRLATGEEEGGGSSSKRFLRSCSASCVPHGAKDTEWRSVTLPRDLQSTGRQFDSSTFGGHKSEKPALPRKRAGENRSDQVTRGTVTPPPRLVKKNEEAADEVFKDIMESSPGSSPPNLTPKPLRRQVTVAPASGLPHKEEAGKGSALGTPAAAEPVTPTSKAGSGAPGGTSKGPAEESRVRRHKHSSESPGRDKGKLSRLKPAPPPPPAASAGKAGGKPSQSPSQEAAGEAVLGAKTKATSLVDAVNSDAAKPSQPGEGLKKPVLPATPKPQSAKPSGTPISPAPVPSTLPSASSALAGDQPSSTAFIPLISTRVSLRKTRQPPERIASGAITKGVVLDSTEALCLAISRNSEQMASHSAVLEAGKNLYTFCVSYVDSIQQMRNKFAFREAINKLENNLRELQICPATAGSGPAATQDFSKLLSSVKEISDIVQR
Chain of BTK (Ser180) (Homo sapiens, UniProt Q06187+Q13131+Q9Y478) (Q06187 whole entry): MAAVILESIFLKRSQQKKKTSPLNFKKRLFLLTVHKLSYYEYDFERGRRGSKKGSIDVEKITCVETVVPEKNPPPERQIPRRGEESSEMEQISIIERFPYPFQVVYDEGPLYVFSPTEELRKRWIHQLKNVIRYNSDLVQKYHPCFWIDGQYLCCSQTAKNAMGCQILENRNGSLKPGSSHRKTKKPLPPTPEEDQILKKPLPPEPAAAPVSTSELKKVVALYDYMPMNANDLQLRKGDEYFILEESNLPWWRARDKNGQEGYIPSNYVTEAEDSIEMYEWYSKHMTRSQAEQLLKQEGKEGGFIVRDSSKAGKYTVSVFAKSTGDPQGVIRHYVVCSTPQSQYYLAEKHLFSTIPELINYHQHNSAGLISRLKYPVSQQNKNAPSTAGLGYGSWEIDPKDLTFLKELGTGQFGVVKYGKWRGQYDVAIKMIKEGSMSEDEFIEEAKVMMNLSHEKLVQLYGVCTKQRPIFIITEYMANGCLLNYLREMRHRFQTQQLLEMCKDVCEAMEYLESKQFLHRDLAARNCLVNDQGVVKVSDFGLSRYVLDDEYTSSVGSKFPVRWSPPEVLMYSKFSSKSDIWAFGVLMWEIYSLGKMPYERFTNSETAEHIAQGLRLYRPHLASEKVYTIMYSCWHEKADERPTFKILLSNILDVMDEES
Chain of BTK (Ser180) (Homo sapiens, UniProt Q06187+Q13131+Q9Y478) (Q13131 whole entry): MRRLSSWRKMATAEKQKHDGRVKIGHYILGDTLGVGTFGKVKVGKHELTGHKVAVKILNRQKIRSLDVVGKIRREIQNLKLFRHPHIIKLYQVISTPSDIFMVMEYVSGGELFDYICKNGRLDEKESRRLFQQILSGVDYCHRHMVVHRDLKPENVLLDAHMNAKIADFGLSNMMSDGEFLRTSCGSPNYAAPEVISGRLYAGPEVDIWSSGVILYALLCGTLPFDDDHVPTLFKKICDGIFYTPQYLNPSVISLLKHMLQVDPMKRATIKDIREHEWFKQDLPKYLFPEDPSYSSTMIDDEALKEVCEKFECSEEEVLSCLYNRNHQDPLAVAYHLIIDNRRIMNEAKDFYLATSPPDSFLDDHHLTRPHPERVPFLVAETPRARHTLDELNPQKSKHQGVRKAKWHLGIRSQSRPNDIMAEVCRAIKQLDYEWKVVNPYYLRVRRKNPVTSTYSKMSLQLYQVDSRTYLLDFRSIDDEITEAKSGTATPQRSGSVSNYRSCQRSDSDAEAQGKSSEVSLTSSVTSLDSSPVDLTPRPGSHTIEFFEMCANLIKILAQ
Chain of BTK (Ser180) (Homo sapiens, UniProt Q06187+Q13131+Q9Y478) (Q9Y478 whole entry): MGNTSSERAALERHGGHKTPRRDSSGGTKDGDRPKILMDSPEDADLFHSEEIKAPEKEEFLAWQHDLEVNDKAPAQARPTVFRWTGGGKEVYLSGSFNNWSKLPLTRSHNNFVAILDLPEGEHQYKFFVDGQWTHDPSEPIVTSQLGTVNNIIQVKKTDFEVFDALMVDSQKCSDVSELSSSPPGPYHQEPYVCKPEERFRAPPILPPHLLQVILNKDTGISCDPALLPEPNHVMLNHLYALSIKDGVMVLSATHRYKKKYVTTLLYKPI
Chain of BTK (Ser180) (Homo sapiens, UniProt Q06187+Q13131+Q9Y478) (P54619 whole entry partner): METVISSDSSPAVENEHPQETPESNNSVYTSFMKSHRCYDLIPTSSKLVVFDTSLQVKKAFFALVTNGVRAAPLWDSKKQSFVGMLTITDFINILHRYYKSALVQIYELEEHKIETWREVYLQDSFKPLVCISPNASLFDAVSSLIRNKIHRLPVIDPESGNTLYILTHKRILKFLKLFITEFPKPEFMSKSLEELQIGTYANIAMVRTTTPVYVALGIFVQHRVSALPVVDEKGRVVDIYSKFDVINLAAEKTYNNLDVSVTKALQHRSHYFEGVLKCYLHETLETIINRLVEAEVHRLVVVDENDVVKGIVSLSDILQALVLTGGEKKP
T13 sequence (Q06187 2-659 S180A): as the sequence (Q06187 2-659) above, with S179A counted along it
T12 sequence (Q06187 2-659 T474A): as the sequence (Q06187 2-659) above, with T473A counted along it

Regarding `Cc1sc2c(c1C)C(c1ccc(Cl)cc1)=NC(CC(=O)NCCCCCC(=O)NCc1ccc(COc3ccc4c(c3)N(C)[C@@H](C(C)C)C(=O)N[C@H](CO)C4)cc1)c1nnc(C)n1-2` (some centres unmarked) [PHICS2.3], the “calculated ADP production” value on BRD4 (PKC) is 740 ± 31 nM. Besides, the BRD4 phosphorylation level result is given as “highest BRD4 phosphorylation” on BRD4 (PKCα); “modest phosphorylation” on BRD4 (PKCβII); “only minor phosphorylation” on BRD4 (PKCγ); “modest phosphorylation” on BRD4 (PKCβI); “only minor phosphorylation” at BRD4 (PKCδ). The “ternary complex formation (AlphaScreen), BRD4 and PKC” value at BRD4 and PKC (α-isoform) is listed as “displayed the bell-shaped curve”.

Consider `CC(C)CC(C/C=C1\CC(CO)(COC(=O)C(C)(C)C)OC1=O)CC(C)C` (centres unmarked) [AJH-836], for which the Kd on PKCalpha was 23.6 nM; on PKC beta, 19.7 nM; on PKC delta, 1.89 nM; on PKC epsilon, 1.89 nM. Besides, in assay [1], the cytoskeletal reorganization entry is “AJH-836 induced major changes in cytoskeletal reorganization in lung cancer and HeLa cervical adenocarcinoma cells as determined by the formation of membrane ruffles”. In addition, the PKC isoform selectivity result on PKCδ is “selective for PKCδ and PKC”.

Turning to `O=C1NC(=O)C(c2cn(-c3ccccc3)nc2-c2ccc(F)cc2)N1` (centres unmarked) [DPH, 5-[3-(4-fluorophenyl)-1-phenyl-1H-pyrazol-4-yl]-2,4-imidazolidinedione], on ABL [2], the Kd was 137 nM. Moreover, the “ABL activation (ADP-Glo)” value at ABL [3] is “activated”.

As for `Nc1ncnc2c1c(-c1ccc(Oc3ccccc3)cc1)nn2[C@@H]1CCCN(C(=O)CCCCCCCCC(=O)NCCOc2ccc(-c3cc4c(C(=O)O)c[nH]c4cc3Cl)cc2)C1` [PHICS3], the “in vitro BTK phosphorylation (linker comparison)” value at BTK (Ser180) [4] is “most optimal molecule for phosphorylation; also recorded: optimum”. Further, the “BTK phosphorylation at Ser180” value was “markedly reduced” at BTK (Ser180) [5]; “markedly reduced” at BTK (Ser180) [6]; “drastically lowered BTK phosphorylation” on BTK (Ser180) [7]; “phosphorylation was not detected” on BTK (Ser180) [8]; “optimal molecule for phosphorylation; also recorded: able to detect PHICS-mediated BTK phosphorylation at Ser180” at BTK (Ser180) [9] (WT BTK-Flag); “demolished the ability of PHICS3 to induce BTK phosphorylation” on BTK (Ser180) [9] (pre-treatment with covalent BTK binder ibrutinib). In assay [10], the “ternary complex formation inside the cells (co-immunoprecipitation)” value is given as “co-immunoprecipitation of AMPK with BTK”.
